Assay results: ChEMBL document CHEMBL3739261, “Synthesis and antibacterial activity evaluation of C-5 side chain modified analogues of FYL-66, a potential agent against methicillin-resistant Staphylococcus aureus” (Medchemcomm, 2015)
Converted amounts (≈) assume the structure as drawn.

Legend:
[1] = Octanol/water partition coefficient, log P of the compound by HPLC assay; assay type: physicochemical
Staphylococcus aureus [2] = assay: Antibacterial activity against methicillin-susceptible Staphylococcus aureus ATCC 29213 incubated for 18 hrs by broth microdilution method; assay type: functional; conditions: ATCC 29213, 18 h
[3] = Cytotoxicity against human L02 cells after 48 hrs by MTT assay; assay type: cell-based; conditions: L02, 48 h
Pseudomonas aeruginosa = assay: Antibacterial activity against Pseudomonas aeruginosa ATCC 27853 incubated for 18 hrs by broth microdilution method; assay type: functional; conditions: ATCC 27853, 18 h
Escherichia coli = assay: Antibacterial activity against Escherichia coli ATCC 25922 incubated for 18 hrs by broth microdilution method; assay type: functional; conditions: ATCC 25922, 18 h
Staphylococcus aureus [4] = assay: Antibacterial activity against methicillin-susceptible Staphylococcus aureus CMCC 2603 incubated for 18 hrs by broth microdilution method; assay type: functional; conditions: CMCC 2603, 18 h
Staphylococcus aureus [5] = assay: Antibacterial activity against methicillin-susceptible Staphylococcus aureus ATCC 25923 incubated for 18 hrs by broth microdilution method; assay type: functional; conditions: ATCC 25923, 18 h
Staphylococcus aureus [6] = assay: Antibacterial activity against methicillin-resistant Staphylococcus aureus ATCC 33591 incubated for 18 hrs by broth microdilution method; assay type: functional; conditions: ATCC 33591, 18 h
Staphylococcus aureus [7] = assay: Antibacterial activity against methicillin-resistant Staphylococcus aureus ATCC 43300 incubated for 18 hrs by broth microdilution method; assay type: functional; conditions: ATCC 43300, 18 h
Staphylococcus aureus [8] = assay: Antibacterial activity against methicillin-susceptible Staphylococcus aureus ATCC 6538 incubated for 18 hrs by broth microdilution method; assay type: functional; conditions: ATCC 6538, 18 h
[9] = Solubility of compound in distilled water after 24 hrs by HPLC analysis; assay type: physicochemical
[10] = Cytotoxicity against HEK293A cells after 48 hrs by MTT assay; assay type: cell-based; conditions: Homo sapiens, HEK293-A

Compound	logP [1]	MIC (Staphylococcus aureus [2]) [µg/mL]	IC50 [3] [µg/mL]	MIC (Pseudomonas aeruginosa) [µg/mL]	MIC (Escherichia coli) [µg/mL]	MIC (Staphylococcus aureus [4]) [µg/mL]	MIC (Staphylococcus aureus [5]) [µg/mL]	MIC (Staphylococcus aureus [6]) [µg/mL]	MIC (Staphylococcus aureus [7]) [µg/mL]	MIC (Staphylococcus aureus [8]) [µg/mL]	solubility at 24 h [9] [µM]	IC50 [10] [µg/mL]
CN(C)S(=O)(=O)NC[C@H]1CN(c2ccc(-n3cc(-c4ccccn4)cn3)c(F)c2)C(=O)O1	1.38	> 32	158 (≈ 343 µM)	> 32	> 32	> 32	> 32	> 32	> 32	> 32	472 (≈ 217 µg/mL)	249 (≈ 541 µM)
O=C(CF)NC[C@H]1CN(c2ccc(-n3cc(-c4ccccn4)cn3)c(F)c2)C(=O)O1	1.29	4 (≈ 9.68 µM)	106 (≈ 256 µM)	> 32	> 32	4 (≈ 9.68 µM)	4 (≈ 9.68 µM)	4 (≈ 9.68 µM)	4 (≈ 9.68 µM)	4 (≈ 9.68 µM)	61.8 (≈ 25.5 µg/mL)	> 400
CS(=O)(=O)NC[C@H]1CN(c2ccc(-n3cc(-c4ccccn4)cn3)c(F)c2)C(=O)O1	1.38	> 64	> 400	> 32	> 32	> 64	> 64	> 64	> 64	> 64	2.3 (≈ 0.992 µg/mL)	314 (≈ 728 µM)
CCN1CCN(C[C@H]2CN(c3ccc(-n4cc(-c5ccccn5)cn4)c(F)c3)C(=O)O2)CC1	2.19	> 32	99 (≈ 220 µM)	> 32	> 32	> 32	> 32	> 32	> 32	> 32	706 (≈ 318 µg/mL)	99 (≈ 220 µM)
CN(CCC#N)C[C@H]1CN(c2ccc(-n3cc(-c4ccccn4)cn3)c(F)c2)C(=O)O1	1.9	> 32	> 400	> 32	> 32	> 32	> 32	> 32	> 32	> 32	64.5 (≈ 27.1 µg/mL)	> 400
O=C(OC[C@H]1CN(c2ccc(-n3cc(-c4ccccn4)cn3)c(F)c2)C(=O)O1)c1ccccc1	4.21	> 32	> 400	> 32	> 32	> 32	> 32	> 32	> 32	> 32	≤ 65.4	> 400
CNC(=O)[C@H]1CN(c2ccc(-n3cc(-c4ccccn4)cn3)c(F)c2)C(=O)O1	1.39	8 (≈ 21 µM)	217 (≈ 569 µM)	> 32	> 32	8 (≈ 21 µM)	8 (≈ 21 µM)	16 (≈ 42 µM)	16 (≈ 42 µM)	8 (≈ 21 µM)	26.2 (≈ 9.99 µg/mL)	342 (≈ 897 µM)
O=C1O[C@@H](CN2CCN(CCO)CC2)CN1c1ccc(-n2cc(-c3ccccn3)cn2)c(F)c1	1.09	> 32	> 400	> 32	> 32	> 32	> 32	> 32	> 32	> 32	125 (≈ 58.1 µg/mL)	> 400
CCC(=O)NC[C@H]1CN(c2ccc(-n3cc(-c4ccccn4)cn3)c(F)c2)C(=O)O1	2.2	4 (≈ 9.77 µM)	204 (≈ 498 µM)	> 32	> 32	4 (≈ 9.77 µM)	4 (≈ 9.77 µM)	4 (≈ 9.77 µM)	4 (≈ 9.77 µM)	4 (≈ 9.77 µM)	147 (≈ 60 µg/mL)	389 (≈ 950 µM)
CC(=O)OC[C@H]1CN(c2ccc(-n3cc(-c4ccccn4)cn3)c(F)c2)C(=O)O1	2.09	> 32	> 400	> 32	> 32	> 32	> 32	> 32	> 32	> 32	373 (≈ 148 µg/mL)	> 400
O=C1OC(Cn2ccnc2)CN1c1ccc(-n2cc(-c3ccccn3)cn2)c(F)c1 (single isomer, unassigned)	1.73	> 32	350 (≈ 865 µM)	> 32	> 32	> 32	> 32	> 32	> 32	> 32	12.3 (≈ 4.97 µg/mL)	> 400
O=C1O[C@@H](CN2CCCCC2)CN1c1ccc(-n2cc(-c3ccccn3)cn2)c(F)c1	3.1	32 (≈ 75.9 µM)	> 400	> 32	> 32	> 32	32 (≈ 75.9 µM)	32 (≈ 75.9 µM)	32 (≈ 75.9 µM)	32 (≈ 75.9 µM)	219 (≈ 92.4 µg/mL)	> 400
O=C1O[C@@H](CNC(=O)C(F)(F)F)CN1c1ccc(-n2cc(-c3ccccn3)cn2)c(F)c1	≥ 1.78	> 64	> 400	> 32	> 32	> 64	> 64	> 64	> 64	> 64	114 (≈ 51 µg/mL)	> 400
CCNC(=O)NC[C@H]1CN(c2ccc(-n3cc(-c4ccccn4)cn3)c(F)c2)C(=O)O1	2.45	8 (≈ 18.8 µM)	> 400	> 32	> 32	8 (≈ 18.8 µM)	8 (≈ 18.8 µM)	8 (≈ 18.8 µM)	8 (≈ 18.8 µM)	8 (≈ 18.8 µM)	222 (≈ 94.1 µg/mL)	29 (≈ 68.3 µM)
O=C1O[C@@H](CO)CN1c1ccc(-n2cc(-c3ccccn3)cn2)c(F)c1	1.67		59 (≈ 167 µM)								56.4 (≈ 20 µg/mL)	> 400
O=C1O[C@@H](Cn2ccnn2)CN1c1ccc(-n2cc(-c3ccccn3)cn2)c(F)c1	2	4 (≈ 9.87 µM)	49 (≈ 121 µM)	> 32	> 32	4 (≈ 9.87 µM)	4 (≈ 9.87 µM)	4 (≈ 9.87 µM)	4 (≈ 9.87 µM)	4 (≈ 9.87 µM)	247 (≈ 100 µg/mL)	225 (≈ 555 µM)
O=C1O[C@@H](CN2CCC(c3ccc(F)cc3)CC2)CN1c1ccc(-n2cc(-c3ccccn3)cn2)c(F)c1	5.78	> 32	> 400	> 32	> 32	> 32	> 32	> 32	> 32	> 32	≤ 19.4	> 400
